One molecule from patent publication US12516041B2, “Crystal forms of GLP-1R agonists and uses thereof” (QILU REGOR THERAPEUTICS INC., priority 2020, dated 2026) can be followed below.

Holding throughout (format): physicochemical
Series [1] is described as follows: Solid-state stability study (HPLC purity, XRPD). As to the method: XRPD patterns were identified with an X-ray diffractometer (PANalytical Empyrean). The system was equipped with PIXcel^1D detector. Samples were scanned from 3 to 40° 2θ, at a step size of 0.013° 2θ. The tube voltage and current were 45 KV and 40 mA, respectively.
(§1) HPLC analysis was performed with an Agilent HPLC 1260 series instrument.
(§2) HPLC Method for Stability and Solubility Testing
About 25 mg of free acid Form I was placed at 60° C./capped and 40° C./75% RH (open) conditions for up to 12 days. At day 0 and 7, the sample was dissolved in diluent to prepare 0.5 mg/mL solution for HPLC purity analysis. Solid samples were analyzed by XRPD to check the crystal form at day 12.

Series [2] is described as follows: Solubility test in bio-relevant media (SGF, FeSSIF, FaSSIF), HPLC of filtrate, XRPD of filter cake. The settings on record: for solubility at 24 h / solubility at 0.5 h / solubility at 2 h: 37 °C, thermodynamic from solid; for solubility at 24 h: read-out: Solubility (μg/mL) 24 h; for solubility at 0.5 h: read-out: Solubility (μg/mL) 0.5 h; for solubility at 2 h: read-out: Solubility (μg/mL) 2 h. How it is done: as §1, §2
The solubility of free acid Form I was tested in bio-relevant media (Simulated Gastric Fluid (SGF), Fasted-State Simulated Intestinal Fluid (FaSSIF) and Fed-State Simulated Intestinal Fluid (FeSSIF)) at 37° C. for up to 24 hours. About 15 mg of the sample was weighed into sample vial, and then 5.0 mL of bio-relevant media was added to make suspension. All suspensions prepared were shaken @ 600 rpm with a QQMSC-100 shaker at 37° C. At 0.5, 2 and 24 hours, about 1000 μL of each suspension was filtered and diluted, and then the filtrate was analyzed by HPLC to test the solubility. The pH of the filtrate was measured, and the filter cake was analyzed by XRPD.

A short description of series [3]: Dynamic Vapor Sorption (DVS). The text has this:
Moisture sorption/desorption data was collected on a Vsorp Dynamic Moisture Sorption Analyzer (ProUmid GmbH & Co. KG, Germany). The sample was placed into a tared sample chamber and automatically weighed.
The product obtained from preparation method 1 was characterized by XRPD (FIG. 1), TGA, DSC (FIG. 2), DVS (FIG. 3), and ^1H-NMR.

Converted amounts (≈) assume the structure as drawn. Where two headings read alike, the source gives them in different places.

Consider `O=C(O)c1ccc2nc(Cc3ccc(-c4cccc(OCc5ccc(Cl)cc5F)n4)cc3F)n(C[C@@H]3CCO3)c2c1` [Free Acid Form I, (S)-2-(4-(6-((4-chloro-2-fluorobenzyl)oxy)pyridin-2-yl)-2-fluorobenzyl)-1-(oxetan-2-ylmethyl)-1H-benzo[d]imidazole-6-carboxylic acid], for which, in series [1] (40° C./75% RH (open), 1 week, HPLC), the “Purity-1 week (Area %) 40° C./75% RH, 1 week” value was 99.56 Area %. Besides, the “XRPD-12 days 40° C./75% RH” value in series [1] (40° C./75% RH (open), 12 days) is “Unchanged”. Moreover, in series [1] (60° C./capped and 40° C./75% RH (open), 12 days), the “Physical and chemical stability (in words)” value was “physically and chemically stable”. The “Purity-1 week (Area %) 60° C./Capped, 1 week” value in series [1] (60° C./capped, 1 week, HPLC) is 99.54 Area %. For the same molecule, in series [1] (60° C./capped, 12 days), the “XRPD-12 days 60° C./Capped” value is listed as “Unchanged”. Further, in series [1] (day 0, HPLC), the “Initial Purity (Area %)” value was 99.58 Area %. For the same molecule, the solubility at 24 h in series [2] (FaSSIF, pH 6.45, fassif, FaSSIF, pH 6.45 (24 h)) stood at 15 µg/mL (≈ 26 µM); in series [2] (FeSSIF, pH 4.95, fessif, FeSSIF, pH 4.95 (24 h)), 11 µg/mL (≈ 19.1 µM). Besides, the solubility at 0.5 h in series [2] (FaSSIF, pH 6.5, fassif, FaSSIF, pH 6.50 (0 h)) was around 5 µg/mL (≈ 8.68 µM); in series [2] (FeSSIF, pH 4.99, fessif, FeSSIF, pH 4.99 (0 h)) it was around 10 µg/mL (≈ 17.4 µM). For the same molecule, the solubility at 2 h came to 6 µg/mL (≈ 10.4 µM) in series [2] (FaSSIF, pH 6.5, fassif, FaSSIF) and 17 µg/mL (≈ 29.5 µM) in series [2] (FeSSIF, pH 4.99, fessif, FeSSIF). Further, the “Solubility in SGF (in words)” value in series [2] (SGF, 37° C.) is listed as “insoluble”. Also, the “XRPD pattern after solubility study” value in series [2] (bio-relevant media, 37° C., up to 24 hours) is on record as “not changed”. Also, the “XRPD (24 h)” value in series [2] (filter cake after 24 h in FaSSIF, 37° C.) is “Unchanged”; in series [2] (filter cake after 24 h in FeSSIF, 37° C.) it was “Unchanged”; in series [2] (filter cake after 24 h in SGF, 37° C.), “Unchanged”. Further, the “Hygroscopicity (DVS)” value was “Slightly” in series [3], “slightly hygroscopic” in series [3] (listed as crystalline Form I of Compound A free acid) and “slightly hygroscopic” in series [3] (listed as free acid Form I). Further, the “DVS weight change to 90% RH” value in series [3] (0 to 90% RH) turned out to be 0.6%. In series [3] (after DVS test), the “Crystal form after DVS test” value was “remained unchanged”. In addition, in series [3] (from 0 to 80% RH), the “DVS weight change 0-80% RH” value is around 0.3%.
